Test results as given in paper PMC9266914, “Broad Spectrum Functional Activity of Structurally Related Monoanionic Au(III) Bis(Dithiolene) Complexes” (International Journal of Molecular Sciences, 2022).
Like-named read-outs stand apart in the source and are kept apart here.

Key:
[1] = system: S. aureus Newman; design: method as in PMID 32391537; conditions: complexes starred as Complex 1 / Complex 2; cited from earlier work
[2] = system: C. glabrata CBS138; design: method as in PMID 32391537; conditions: complexes starred as Complex 1 / Complex 2; cited from earlier work
[3] = system: C. albicans SC5134; design: method as in PMID 32391537; conditions: complexes starred as Complex 1 / Complex 2; cited from earlier work
[4] = system: OVCAR8 ovarian cancer cells; experiment: MTT cytotoxicity assay in OVCAR8 (cisplatin resistant) ovarian cancer cells; type: cell-based, human; conditions: 48 h incubation
Experimental: (§1) Cells were exposed to increasing concentrations of the complexes (0.01–100 μM) for 24 and/or 48 h, at 37 °C. The IC50 values were calculated from dose–response curves using the colorimetric MTT assay. […] Most complexes presented a similar cytotoxicity profile compared to Auranofin, but higher activity compared to Cisplatin, and, most importantly, were active in the Cisplatin-resistant OVCAR8 cells (Table 2).
(§2) The cytotoxic activity of the complexes was evaluated in the A2780 (cisplatin sensitive) (Sigma-Aldrich) and OVCAR8 (cisplatin resistant) (ATCC) ovarian cancer cells. Cells were grown in RPMI-1640 medium (Gibco, Thermo Fisher) supplemented with 10% fetal bovine serum (FBS) and were maintained at 37 °C in a humidified atmosphere with 5% CO2. The complexes were initially dissolved in DMSO and then in culture medium to prepare serial dilutions in the range 10^−9–10^−4 M. After 24 and/or 48 h incubation the cellular viability was measured by the colorimetric MTT assay, as previously described.

[5] = system: A2780 ovarian cancer cells; design: method as in PMID 32391537; conditions: MTT, starred values, cited from earlier work
[6] = system: E. coli ATCC25922; design: method as in PMID 32391537; conditions: complexes starred as Complex 1 / Complex 2; cited from earlier work
[7] = system: ΦX174 supercoiled DNA; experiment: Electrophoretic mobility of supercoiled DNA; type: binding; conditions: 24 h, 37 °C, in words
Experimental: The potential interaction of the complexes with DNA was evaluated through the assessment of the electrophoretic mobility of supercoiled ϕX174 DNA, using a previously described method. To that end, a mixture was prepared containing 200 ng of supercoiled ϕX174 DNA (Promega) in 10 mM of phosphate buffer (pH 7.2) and increasing concentrations of Cisplatin, as a positive control, or the metal complexes (in a total volume of 20 μL). The mixture was incubated for 24 h at 37 °C, in the dark. As controls, samples having non-incubated plasmid and plasmid incubated with DMSO were also prepared. Then, all samples were prepared for electrophoresis through the addition of 2 μL of 10× DNA loading buffer (Applichem) and loading on an 0.8% agarose gel in TBE buffer (Thermo Fisher Scientific, Waltham, MA, USA). The gel was run at 90 V for approximately 3 h, stained using a 3× GelRed® (Biotium) solution in H2O, and the bands visualized using an AlphaImagerEP (Alpha Innotech) under UV light.

[8] = system: A2780 ovarian cancer cells; experiment: MTT cytotoxicity assay in A2780 (cisplatin sensitive) ovarian cancer cells; type: cell-based, human; conditions: 24 h incubation, read-out: IC50 A2780, 24 h
Experimental: as §1, §2

[9] = biological target: human serum albumin (HSA) (Homo sapiens, UniProt P02768); design: method as in PMID 26469679, PMID 22835721, PMID 32283915, doi:10.1016/j.jlumin.2011.06.005; conditions: cited from earlier work
human serum albumin (HSA), sequence (P02768 25-609): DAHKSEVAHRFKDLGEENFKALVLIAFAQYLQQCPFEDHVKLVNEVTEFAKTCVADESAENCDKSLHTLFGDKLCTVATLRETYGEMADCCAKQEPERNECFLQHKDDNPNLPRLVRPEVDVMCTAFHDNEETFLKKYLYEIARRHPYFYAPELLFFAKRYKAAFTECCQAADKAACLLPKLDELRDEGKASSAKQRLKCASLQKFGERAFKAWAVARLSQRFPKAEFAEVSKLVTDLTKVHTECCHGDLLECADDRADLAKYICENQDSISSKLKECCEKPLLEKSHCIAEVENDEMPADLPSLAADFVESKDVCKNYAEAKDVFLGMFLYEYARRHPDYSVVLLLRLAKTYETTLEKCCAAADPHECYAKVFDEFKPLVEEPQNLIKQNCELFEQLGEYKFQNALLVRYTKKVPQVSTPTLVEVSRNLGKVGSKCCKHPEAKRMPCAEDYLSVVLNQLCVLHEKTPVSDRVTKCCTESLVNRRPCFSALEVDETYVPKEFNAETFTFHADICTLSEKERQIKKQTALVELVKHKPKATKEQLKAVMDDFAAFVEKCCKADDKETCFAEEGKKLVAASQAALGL

[10] = 48 h incubation, read-out: IC50 A2780, 48 h

Row | SMILES | MIC S. aureus Newman [1] | MIC C. glabrata CBS138 [2] | MIC C. albicans SC5134 [3] | IC50 [4] | IC50 ([5]; 24 h incubation, read-out: IC50 A2780, 24 h) | IC50 [5, 10] | MIC E. coli ATCC25922 [6] | conformational changes / electrophoretic mobility of DNA [7] | IC50 [8] | binding constant to HSA [9]
1 | CC[N+](CC)(CC)CC.CCn1c2c(sc1=S)[S][Au-]1([S]c3sc(=S)n(CC)c3[S]1)[S]2 [[N][AuSEt(=S)]] | 12.1 ± 3.9 µg/mL | 9.7 ± 2.7 µg/mL | 19.9 ± 2.4 µg/mL | 3.76 ± 0.71 µM | 4.23 ± 0.8 µM | 1.3 ± 0.32 µM | >125 µg/mL | – | – | –
2 | N.N.[Cl][Pt][Cl] [Cisplatin, reference compound] | – | – | – | 10.1 ± 2.3 µM | – | 3.6 ± 1.25 µM | – | able to alter the electrophoretic mobility of the nicked and supercoiled forms of DNA in a dose-dependent way | 21.1 ± 5 µM | 10^2 M^−1
